Measured values: patent US20220251039A1, “Diaryl-B-Lactam Compound and Preparation Method and Pharmaceutical Use Thereof” (Fudan University, priority 2016, published 2022)
“Also recorded” adds a separate entry of the source.

Experiments:
SKOV3 = assay: MTT antiproliferative assay, SKOV3; format: cell-based; conditions: Homo sapiens, SK-OV-3, SKOV3, 48 h, read-out: In vitro cell growth inhibition IC50, SKOV3
Method: (§1) 5000 tumor cells per well were seeded into 96-well plate and allowed to adhere overnight. Cells were treated with various concentrations of tested compounds or DMSO (0.2%, as negative control) for 48 h. Then, the medium along with tested compounds or DMSO was discarded and […] per well MTT containing medium (0.5 mg/mL) was added. After incubation at 37° C. for 4 h, the MTT-containing medium was replaced by DMSO (150 μL per well) to dissolve the formazan crystals. Absorbance of the resulting solution was measured by microplate reader (Biotech ELx800) at 540 nm wavelength. Growth inhibition rates were calculated with the absorbance. Half maximal inhibitory concentration (IC50) of each compound was calculated using GraphPad Prism, version 6.0.

Hela = assay: MTT antiproliferative assay, Hela; format: cell-based; conditions: Homo sapiens, 48 h, read-out: In vitro cell growth inhibition IC50, Hela
Method: as §1

tubulin [1] = assay: Immunoblotting analysis of polymerized/depolymerized tubulin; format: cell-based, human; conditions: Hela cells, 6 h
Method: After being treated with diluent (0.2% DMSO), tested compound, CA-4 or PTX for 6 h, Hela cells were lysed with microtubulestabilizing buffer, containing 100 mM PIPES, pH 6.8, 1 mM MgCl2, 2 mM EGTA, 0.5% NP-40, 2 M glycerol, 5 μM PTX and protease inhibitors cocktail (Roche), and the lysate was centrifuged at 15,000 rpm for 15 min. Supernatant containing depolymerized tubulin was carefully collected, whereas pellet (polymerized tubulin) was further dissolved in SDS-lysis buffer (Beyotime, China). Equal amounts of supernatant and dissolved pellet were subjected to immunoblotting analysis as described above using a tubulin antibody (Proteintech).

tubulin [2] = assay: Immunofluorescent analysis of tubulin morphology; format: cell-based, human; conditions: SKOV-3 cells, 24 h
Method: After treatment with diluent (0.2% DMSO) or tested compounds at indicated concentrations for 24 h, SKOV-3 cells were fixed with methanol, permeabilized with 0.1% Triton X-100 in PBS and blocked by goat serum. Then the cells were incubated with a-tubulin antibody at 4° C. overnight, followed by incubation with Alexa 488 labeled secondary antibody (Jackson ImmunoResearch) at RT for 1 h. After being stained with DAPI, cells were examined and photographed with a Leica SP5 co-focal fluorescence microscope.

MDA-MB-231 cells = assay: Colony formation assay; format: cell-based, human; conditions: 48 h treatment, 7-10 days growth
Method: 1000 MDA-MB-231 cells per well were seeded into 6-well plate at a single cell density and were cultured at 37° C. for 48 h. After being treated with indicated concentrations of 69, 70 and 97, CA-4 as positive control, or diluent (0.2% DMSO) as negative control for 48 h, the agents containing medium was replaced by fresh medium to allow cell growth for additional 7-10 days. Then the cells were fixed with methanol and stained with gentian violet for 30 min. The number of colonies which consisted of more than 50 cells were counted. The results were indicated as mean values from three independent determinations.

[3] = test system: p-histone H3, cyclin B1 and BuBR1; assay: Cell cycle associated proteins assay; format: cell-based, human; conditions: HeLa cells, 24 h, Western blot and qPCR
Method: A. HeLa cells were treated with 69, 70, 97 or DMSO for 24 h. After being harvested, the cells were lysed, and the concentrations of total protein were determined by BCA protein assay kit (Beyotime, China). […] The membrane was blocked with 5% BSA in TBST for 1.5 h, then incubated overnight with specific primary antibodies (Proteintech) at 4° C. After being washed three times by TBST, the membrane was incubated with specific secondary antibodies (Abnova, Taipei, China) at room temperature for 2 h. Finally, chemiluminescent reagents (Millipore) were employed to detect the protein bands.
(§2) B. Quantitative PCR assay: HeLa cells were treated with 69, 70 or 97. The expression level of mRNA of target proteins was tested with qPCR kit (Takara).

cellular apoptosis = assay: Cell apoptosis analysis (Annexin V/PI); format: cell-based; conditions: 48 h, Annexin-V/PI flow cytometry
Method: Cell apoptosis was detected using FITC Annexin V Apoptosis Detection Kit (BD Biosciences) according to manufacturer's instructions. Briefly, cells were incubated with indicated concentrations of 69, 70 and 97, CA-4 as positive control or diluent (0.2% DMSO) as negative control for 48 h. Then the cells were harvested, washed twice with PBS, and re-suspended in binding buffer. After being stained with Annexin-V and PI for 15 min in the dark place, cells were subjected to flow cytometry (Cytomics FC 500 MPL, Beckman Coulter) analysis. The results were indicated as mean values from three independent determinations.

[4] = test system: Bax, p53 and cleaved-PARP; assay: Expression level of apoptosis associated proteins; format: cell-based, human; conditions: HeLa cells, Western blot and qPCR
Method: A. Western blotting: After being treated with candidate compound, cells were harvested and lysed. Then, the lysate was isolated by ultracentrifuge and quantified by BCA assay according to the protocol. After being denatured, equivalent protein of each sample was separated by SDS-PAGE gel and wet-transferred onto […] nitrocellulose membrane. After being blocked by PBS containing 5% skim milk, the membrane was incubated with primary antibody at 4° C. overnight and secondary antibody at room temperature for 2 h and then visualized by enhanced chemiluminescence kit (Thermo Fisher, USA), sequentially.
as §2

KM mice = assay: Acute toxicity assay; format: in vivo
Method: KM mice were housed individually in a specific pathogen free facility. Groups of mice (n=10 per group, half male and half female) were injected intraperitoneally once with various dosages of 69 (95, 70, 50, 35, 25 mg/kg), 70 (500, 425, 350, 275, 200 mg/kg), 97 (275, 200, 150, 125 and 100 mg/kg) or vehicle (8.3% cremohorp EL and 8.3% alcohol in PBS) as negative control, respectively. 69, 70 and 97 was dissolved in cremeohore EL and alcohol mixture (1:1, v/v) and further diluted with PBS (1:5, v/v). The death of mice were monitored daily and recorded up to 14 days after injection.

A2780 cells = assay: Xenografts tumor growth assay in nude mice; format: in vivo, Balb/c nude mice; conditions: A2780 xenograft
Method: 6 weeks old female Balb/c nude mice were purchased from Shanghai Slac Laboratory Animal Co. Ltd. (Shanghai, China). 2*10^6 A2780 cells suspended in 0.2 mL PBS per mouse was injected subcutaneously into the nude mice. […] Administration of agents or vehicle, or agents and measurement of tumor volumes with a digital caliper was done once every 2 days. Tumor volumes were calculated as volume=shortest diameter (W)^2*longest diameter (L)*0.52. When the average tumor volumes of vehicle treated group reached 2000 mm^3 in diameter, the mice were sacrificed and the tumors were isolated and weighed. Visceral organs of the mice as well as solid tumors were further analyzed by H&E staining.

COc1ccc([C@H]2C(=O)C(=O)N2c2cc(OC)c(OC)c(OC)c2)cc1OCc1ccccc1 [Compound 71, (S)-4-(3-(benzyloxy)-4-methoxyphenyl)-1-(3,4,5-trimethoxyphenyl)azetidine-2,3-dione]
IC50 (SKOV3): > 10 µM
IC50 (Hela): > 10 µM

COc1ccc([C@H]2[C@H](C)C(=O)N2c2cc(OC)c(OC)c(OC)c2)cc1O [Compound 97, (3S,4R)-4-(3-hydroxy-4-methoxyphenyl)-3-methyl-1-(3,4,5-trimethoxyphenyl)azetidin-2-one]
polymerized tubulin (immunoblotting) (tubulin [1]): significantly inhibit tubulin aggregation; also recorded: dramatically reduction of polymerized tubulin
tubulin assembly (immunofluorescence) (tubulin [2]): significantly inhibit tubulin aggregation; also recorded: strongly inhibit tubulin assembly in cancer cells
colony formation (MDA-MB-231 cells): significantly inhibit the formation of colonies of cancer cells
expression of p-histone H3, cyclin B1 and BuBR1 [3]: significantly promote the expression of phosphorylated histone H3, cyclin B1, and mitotic checkpoint protein BuBR1
cellular apoptosis (cellular apoptosis): significantly promote apoptosis; also recorded: significantly induce cellular apoptosis
expression of Bax, p53 and cleaved-PARP [4]: significantly promote the expression of the proapoptotic protein Bax, the tumor suppressor gene p53, and the cleaved DNA repair enzyme; also recorded: significantly induce the expression of Bax, p53 and cleaved-PARP
No. of dead mice 5-14 days (KM mice; 100 mg/kg i.p. once): 0
No. of dead mice 1 day (KM mice; 100 mg/kg i.p. once): 0
No. of dead mice 2 days (KM mice; 100 mg/kg i.p. once): 0
No. of dead mice 3 days (KM mice; 100 mg/kg i.p. once): 1
No. of dead mice 4 days (KM mice; 100 mg/kg i.p. once): 0
No. of dead mice Total death (KM mice; 100 mg/kg i.p. once): 1
Survival (%) on day 14 (KM mice; 100 mg/kg i.p. once): 90%
No. of dead mice 5-14 days (KM mice; 125 mg/kg i.p. once): 0
No. of dead mice 1 day (KM mice; 125 mg/kg i.p. once): 0
No. of dead mice 2 days (KM mice; 125 mg/kg i.p. once): 2
No. of dead mice 3 days (KM mice; 125 mg/kg i.p. once): 1
No. of dead mice 4 days (KM mice; 125 mg/kg i.p. once): 0
No. of dead mice Total death (KM mice; 125 mg/kg i.p. once): 3
Survival (%) on day 14 (KM mice; 125 mg/kg i.p. once): 70%
No. of dead mice 5-14 days (KM mice; 150 mg/kg i.p. once): 0
No. of dead mice 1 day (KM mice; 150 mg/kg i.p. once): 2
No. of dead mice 2 days (KM mice; 150 mg/kg i.p. once): 4
No. of dead mice 3 days (KM mice; 150 mg/kg i.p. once): 0
No. of dead mice 4 days (KM mice; 150 mg/kg i.p. once): 0
No. of dead mice Total death (KM mice; 150 mg/kg i.p. once): 6
Survival (%) on day 14 (KM mice; 150 mg/kg i.p. once): 40%
No. of dead mice 5-14 days (KM mice; 200 mg/kg i.p. once): 0
No. of dead mice 1 day (KM mice; 200 mg/kg i.p. once): 1
No. of dead mice 2 days (KM mice; 200 mg/kg i.p. once): 4
No. of dead mice 3 days (KM mice; 200 mg/kg i.p. once): 2
No. of dead mice 4 days (KM mice; 200 mg/kg i.p. once): 0
No. of dead mice Total death (KM mice; 200 mg/kg i.p. once): 7
Survival (%) on day 14 (KM mice; 200 mg/kg i.p. once): 30%
No. of dead mice 5-14 days (KM mice; 275 mg/kg i.p. once): 0
No. of dead mice 1 day (KM mice; 275 mg/kg i.p. once): 2
No. of dead mice 2 days (KM mice; 275 mg/kg i.p. once): 4
No. of dead mice 3 days (KM mice; 275 mg/kg i.p. once): 2
No. of dead mice 4 days (KM mice; 275 mg/kg i.p. once): 1
No. of dead mice Total death (KM mice; 275 mg/kg i.p. once): 9
Survival (%) on day 14 (KM mice; 275 mg/kg i.p. once): 10%
tumor growth in vivo (A2780 cells; i.p. once every 2 days, 69 7.5 mg/kg, 70 12.5 mg/kg, 97 4 or 8 mg/kg): significantly inhibit tumor growth in vivo; also recorded: anti-tumor activities in vivo
H&E staining of liver, kidney and spleen (A2780 cells; treated groups): no abnormal areas are observed in tissue staining of liver, kidney and spleen; also recorded: no detectable abnormalities were observed in liver, kidney and spleen
H&E staining of tumor sections (necrosis) (A2780 cells; treated groups): cause tumor tissue to produce necrotic areas; also recorded: extensive areas of necrosis or cell death
